Reference: patent US20100010219A1, “METHOD FOR PRODUCING PYRROLIDINE COMPOUND” (JAPAN TOBACCO INC., priority 2006, published 2010)
Counter-ions that a name gives are not always drawn.

Biological target: T1, human HSD-1 (recombinant HSD-1) (Homo sapiens, UniProt P28845)
T1 construct: made in house
Assay: HSD-1 activity inhibitory action in vitro (SPA, conversion of cortisone to cortisol)
Type: biochemical
Details: recombinant human HSD-1 expressed using baculovirus system; 10 nM 3H cortisone, 500 μM NADPH; room temperature 90 to 120 min; read-out: hHSD1 (IC50 (nM))

T1 sequence (P28845 whole entry): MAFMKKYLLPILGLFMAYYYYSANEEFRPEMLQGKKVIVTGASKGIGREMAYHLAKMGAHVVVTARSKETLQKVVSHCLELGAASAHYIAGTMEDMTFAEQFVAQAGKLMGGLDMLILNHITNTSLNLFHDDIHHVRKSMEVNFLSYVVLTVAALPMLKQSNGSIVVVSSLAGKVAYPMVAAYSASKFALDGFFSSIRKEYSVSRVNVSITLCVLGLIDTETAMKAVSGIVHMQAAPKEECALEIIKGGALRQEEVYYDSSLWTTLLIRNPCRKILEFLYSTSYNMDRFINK

Compound `O=C(NCC(=O)N1CCC(n2ncc(C(=O)N3CC[C@@H](c4ccccc4C(F)(F)F)C3)c2C2CC2)CC1)C1CC1` [Example 88, 1-{1-[1-(2-cyclopropanecarbonylaminoacetyl)piperidin-4-yl]-5-cyclopropyl-1H-pyrazole-4-carbonyl}-[(S)-3-(2-trifluoromethylphenyl)]pyrrolidine] has an IC50 of less than 30 nM.
`CC1(c2c(C(=O)N3CCC(c4ccccc4C(F)(F)F)C3)cnn2[C@H]2CC[C@@H](C(=O)O)CC2)CC1` (stereo partly drawn) [Example 191, cis-4-{5-(1-methylcyclopropyl)-4-[3-(2-trifluoromethylphenyl)pyrrolidine-1-carbonyl]pyrazol-1-yl}cyclohexanecarboxylic acid] was tested, and the IC50 was less than 30 nM.
`CC1(c2c(C(=O)N3CCC(c4ccccc4C(F)(F)F)C3)cnn2[C@H]2CC[C@H](C(=O)Nc3ccccc3F)CC2)CC1` (stereo partly drawn) [Example 190, 1-{5-(1-methylcyclopropyl)-1-[trans-4-(2-fluorophenylcarbamoyl)cyclohexyl]-1H-pyrazole-4-carbonyl}-3-(2-trifluoromethylphenyl)pyrrolidine] gave an IC50 of less than 30 nM.
`CC(=O)NC1CCN(C(=O)N2CCC(n3ncc(C(=O)N4CC[C@@H](c5ccccc5C(F)(F)F)C4)c3C3CC3)CC2)CC1` [Example 39, 1-{1-[1-(4-acetylaminopiperidine-1-carbonyl)piperidin-4-yl]-5-cyclopropyl-1H-pyrazole-4-carbonyl}-[(S)-3-(2-trifluoromethylphenyl)]pyrrolidine] was tested, and the IC50 was less than 30 nM.
With `O=C(NCCO)N1CCC(n2ncc(C(=O)N3CC[C@@H](c4ccccc4C(F)(F)F)C3)c2C2CC2)CC1` [Example 8, 1-{5-cyclopropyl-1-[1-(2-hydroxyethylcarbamoyl)piperidin-4-yl]-1H-pyrazole-4-carbonyl}-[(S)-3-(2-trifluoromethylphenyl)]pyrrolidine] the IC50 was less than 30 nM.
`O=C(c1cnn(C2CCN(c3ccc(CO)cc3)CC2)c1C1CC1)N1CCC(c2ccccc2C(F)(F)F)C1` (stereo not drawn) [Example 166, 1-{5-cyclopropyl-1-[1-(4-hydroxymethylphenyl)piperidin-4-yl]-1H-pyrazole-4-carbonyl}-3-(2-trifluoromethylphenyl)pyrrolidine] gave an IC50 of less than 30 nM.
With `CCONC(=O)N1CCC(n2ncc(C(=O)N3CCC(c4ccccc4C(F)(F)F)C3)c2C2(C)CC2)CC1` (stereo not drawn) [Example 172, 1-[1-(1-ethoxycarbamoylpiperidin-4-yl)-5-(1-methylcyclopropyl)-1H-pyrazole-4-carbonyl]-3-(2-trifluoromethylphenyl)pyrrolidine] the IC50 was less than 30 nM.
Compound `NC(=O)C1CN(C(=O)N2CCC(n3ncc(C(=O)N4CC[C@@H](c5ccccc5C(F)(F)F)C4)c3C3CC3)CC2)C1` [Example 34, 1-{1-[1-(3-carbamoylazetidine-1-carbonyl)piperidin-4-yl]-5-cyclopropyl-1H-pyrazole-4-carbonyl}-[(S)-3-(2-trifluoromethylphenyl)]pyrrolidine] has an IC50 of less than 30 nM.
`O=C(c1ccccc1Cl)N1CCC(n2ncc(C(=O)N3CCC(c4cccnc4)C3)c2C2CC2)CC1` (stereo not drawn) [Example 157, 1-{1-[1-(2-chlorobenzoyl)piperidin-4-yl]-5-cyclopropyl-1H-pyrazole-4-carbonyl}-3-(pyridin-3-yl)pyrrolidine] was tested, and the IC50 was less than 30 nM.
With `NC(=O)CN1CCC(n2ncc(C(=O)N3CC[C@@H](c4ccccc4C(F)(F)F)C3)c2C2CC2)CC1` [Example 94, 1-[1-(1-carbamoylmethylpiperidin-4-yl)-5-cyclopropyl-1H-pyrazole-4-carbonyl]-[(S)-3-(2-trifluoromethylphenyl)]pyrrolidine hydrochloride] the IC50 was less than 30 nM.
In the case of `CC1(c2c(C(=O)N3CCC(c4cccnc4)C3)cnn2C2CCN(C(=O)N3CCc4ccccc43)CC2)CC1` (stereo not drawn) [Example 148, 1-{1-[1-(2,3-dihydroindole-1-carbonyl)piperidin-4-yl]-5-(1-methylcyclopropyl)-1H-pyrazole-4-carbonyl}-3-(pyridin-3-yl)pyrrolidine], the IC50 is reported as less than 30 nM.
`COCC1(c2ccccc2)CCN(C(=O)c2cnn(C3CCN(c4ccc(Cl)cn4)CC3)c2C2(C)CC2)C1` (stereo not drawn) [Example 174, 1-{1-[1-(5-chloropyridin-2-yl)piperidin-4-yl]-5-(1-methylcyclopropyl)-1H-pyrazole-4-carbonyl}-3-methoxymethyl-3-phenylpyrrolidine] was tested, and the IC50 was less than 30 nM.
In the case of `COc1ccnc(N2CCC(n3ncc(C(=O)N4CCC(CO)(c5ccccc5)C4)c3C3(C)CC3)CC2)n1` (stereo not drawn) [Example 185, 3-hydroxymethyl-1-{1-[1-(4-methoxypyrimidin-2-yl)piperidin-4-yl]-5-(1-methylcyclopropyl)-1H-pyrazole-4-carbonyl}-3-phenylpyrrolidine hydrochloride], the IC50 is reported as less than 30 nM.
`O=C(O)C(=O)N1CCC(n2ncc(C(=O)N3CCC(c4ccccc4C(F)(F)F)C3)c2C2CC2)CC1` (stereo not drawn) [Example 158, 1-[5-cyclopropyl-1-(1-oxalylpiperidin-4-yl)-1H-pyrazole-4-carbonyl]-3-(2-trifluoromethylphenyl)pyrrolidine] gave an IC50 of less than 30 nM.
In the case of `CC(=O)NCCC(=O)N1CCC(n2ncc(C(=O)N3CC[C@@H](c4ccccc4C(F)(F)F)C3)c2C2CC2)CC1` [Example 75, 1-{1-[1-(3-acetylaminopropionyl)piperidin-4-yl]-5-cyclopropyl-1H-pyrazole-4-carbonyl}-[(S)-3-(2-trifluoromethylphenyl)]pyrrolidine], the IC50 is reported as less than 30 nM.
Compound `CC1(c2c(C(=O)N3CCC(CO)(c4ccc(F)cc4)C3)cnn2C2CCN(c3ncccn3)CC2)CC1` (single isomer, unassigned; (+)) [Example 128, (+)-3-(4-fluorophenyl)-3-hydroxymethyl-1-{5-(1-methylcyclopropyl)-1-[1-(pyrimidin-2-yl)piperidin-4-yl]-1H-pyrazole-4-carbonyl}pyrrolidine hydrochloride] has an IC50 of less than 30 nM.
`CC1(c2c(C(=O)N3CCC(c4cccnc4)C3)cnn2C2CCN(C(=O)N3CCCCc4ccccc43)CC2)CC1` (stereo not drawn) [Example 151, 1-{5-(1-methylcyclopropyl)-1-[1-(2,3,4,5-tetrahydrobenzo[b]azepine-1-carbonyl)piperidin-4-yl]-1H-pyrazole-4-carbonyl}-3-(pyridin-3-yl)pyrrolidine] showed an IC50 of less than 30 nM.
`CC(C)[C@H](N)C(=O)N1CCC(n2ncc(C(=O)N3CC[C@@H](c4ccccc4C(F)(F)F)C3)c2C2CC2)CC1` [Example 84, 1-(1-{1-[(S)-2-amino-3-methylbutyryl]piperidin-4-yl}-5-cyclopropyl-1H-pyrazole-4-carbonyl)-[(S)-3-(2-trifluoromethylphenyl)]pyrrolidine hydrochloride] gave an IC50 of less than 30 nM.
`O=C(Nc1ccccc1F)N1CCC(n2ncc(C(=O)N3CC[C@@H](c4ccccc4C(F)(F)F)C3)c2C2CC2)CC1` [Example 124, 1-{5-cyclopropyl-1-[1-(2-fluorophenylcarbamoyl)piperidin-4-yl]-1H-pyrazole-4-carbonyl}-[(S)-3-(2-trifluoromethylphenyl)]pyrrolidine] showed an IC50 of less than 30 nM.
For `CNCC(=O)N1CCC(n2ncc(C(=O)N3CC[C@@H](c4ccccc4C(F)(F)F)C3)c2C2CC2)CC1` [Example 85, 1-{5-cyclopropyl-1-[1-(2-methylaminoacetyl)piperidin-4-yl]-1H-pyrazole-4-carbonyl}-[(S)-3-(2-trifluoromethylphenyl)]pyrrolidine hydrochloride], the IC50 was less than 30 nM.
In the case of `O=C(c1cnn(C2CCN(C(=O)N3CCC(O)CC3)CC2)c1C1CC1)N1CC[C@@H](c2ccccc2C(F)(F)F)C1` [Example 14, 1-{5-cyclopropyl-1-[1-(4-hydroxypiperidine-1-carbonyl)piperidin-4-yl]-1H-pyrazole-4-carbonyl}-[(S)-3-(2-trifluoromethylphenyl)]pyrrolidine], the IC50 is reported as less than 30 nM.
Work on `O=C(NCC(F)(F)F)N1CCC(n2ncc(C(=O)N3CC[C@@H](c4ccccc4C(F)(F)F)C3)c2C2CC2)CC1` [Example 47, 1-{5-cyclopropyl-1-[1-(2,2,2-trifluoroethylcarbamoyl)piperidin-4-yl]-1H-pyrazole-4-carbonyl}-[(S)-3-(2-trifluoromethylphenyl)]pyrrolidine] yielded an IC50 of less than 30 nM.
With `O=C(c1cnn(C2CCN(C(=O)N3CCC[C@H]3CO)CC2)c1C1CC1)N1CC[C@@H](c2ccccc2C(F)(F)F)C1` [Example 27, 1-(5-cyclopropyl-1-{1-[(S)-2-hydroxymethylpyrrolidine-1-carbonyl]piperidin-4-yl}-1H-pyrazole-4-carbonyl)-[(S)-3-(2-trifluoromethylphenyl)]pyrrolidine] the IC50 was less than 30 nM.
Compound `NC(=O)c1ccc(N2CCC(n3ncc(C(=O)N4CCC(c5ccccc5C(F)(F)F)C4)c3C3CC3)CC2)cc1` (stereo not drawn) [Example 165, 1-{1-[1-(4-carbamoylphenyl)piperidin-4-yl]-5-cyclopropyl-1H-pyrazole-4-carbonyl}-3-(2-trifluoromethylphenyl)pyrrolidine] has an IC50 of less than 30 nM.
`CC1(c2c(C(=O)N3CCC(c4cccnc4)C3)cnn2C2CCN(C(=O)Nc3ccc(C(F)(F)F)cc3)CC2)CC1` (stereo not drawn) [Example 133, 1-{5-(1-methylcyclopropyl)-1-[1-(4-trifluoromethylphenylcarbamoyl)piperidin-4-yl]-1H-pyrazole-4-carbonyl}-3-(pyridin-3-yl)pyrrolidine] gave an IC50 of less than 30 nM.
In the case of `CN/C(=N\C#N)N1CCC(n2ncc(C(=O)N3CC[C@@H](c4ccccc4C(F)(F)F)C3)c2C2CC2)CC1` [Example 111, 1-(1-{1-[cyanoimino(methylamino)methyl]piperidin-4-yl}-5-cyclopropyl-1H-pyrazole-4-carbonyl)-[(S)-3-(2-trifluoromethylphenyl)]pyrrolidine], the IC50 is reported as less than 30 nM.
For `CC(C)[C@@H](C(=O)O)N(C)C(=O)[C@H]1CC[C@H](n2ncc(C(=O)N3CCC(c4ccccc4C(F)(F)F)C3)c2C2CC2)CC1` (stereo partly drawn) [Example 189, (S)-2-[(trans-4-{5-cyclopropyl-4-[3-(2-trifluoromethylphenyl)pyrrolidine-1-carbonyl]pyrazol-1-yl}cyclohexanecarbonyl)methylamino]-3-methylbutyric acid], the IC50 was less than 30 nM.
